Values quoted from earlier work as cited in patent US6617154B1, “Electroporation chamber including an electrode having a continuous, crystalline metal nitride coating” (MaxCyte, Inc., priority 1996, dated 2003).

Columns and labels:
[1] = experimental animals; DPG or its precursors
[2] = under ordinary circumstances, not bound to hemoglobin
[3] = system: mammalian erythrocyte membrane
hemoglobin [4] = molecular target: T1, hemoglobin (Homo sapiens, UniProt P68871); settings: relative to DPG
hemoglobin [5] = molecular target: T1, hemoglobin; settings: pH 7.4, 37 degrees C

T1 sequence (P68871 2-147 limits assumed): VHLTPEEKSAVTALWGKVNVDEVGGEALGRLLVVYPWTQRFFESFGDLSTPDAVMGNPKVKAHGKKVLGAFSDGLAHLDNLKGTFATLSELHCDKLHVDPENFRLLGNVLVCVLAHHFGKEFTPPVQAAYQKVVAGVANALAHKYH
T1 sequence (P69905 2-142 partner limits assumed): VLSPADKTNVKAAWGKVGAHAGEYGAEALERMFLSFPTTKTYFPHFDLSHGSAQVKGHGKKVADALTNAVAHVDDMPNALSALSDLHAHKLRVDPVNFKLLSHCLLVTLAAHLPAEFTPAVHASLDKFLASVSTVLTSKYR

| Compound | duration of transient elevation of oxygen deposition [1] [h] | toxicity [2] | passage through the mammalian erythrocyte membrane [3] | affinity to hemoglobin, higher than DPG (hemoglobin [4]) [fold] | P50 of hemoglobin (hemoglobin [5]) [mm Hg] |
| --- | --- | --- | --- | --- | --- |
| O=C(O)C(COP(=O)(O)O)OP(=O)(O)O (centres unmarked) [DPG, 2,3-diphosphoglycerate] | 6 to 12 |  |  |  |  |
| O=P(O)(O)O[C@H]1[C@H](OP(=O)(O)O)[C@@H](OP(=O)(O)O)[C@H](OP(=O)(O)O)[C@@H](OP(=O)(O)O)[C@H]1OP(=O)(O)O [IHP, inositol hexaphosphate] |  | toxic | unable to pass | 1000 | ≤ 96.4 |
